Results published in PubChem BioAssay AID179 (DTP/NCI, 2004).
Calls of active or inactive are those of the source.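 Rule for the calls: active = compounds giving half or more protection of infected cells from virus-caused growth loss, again on retest; inactive = the rest.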 Where a SMILES comes first, the peptide text is derived from it. [ ]: non-standard residue; d: D form. The star is where a group is joined. ξ: configuration not given here. Boc = CC(C)(C)OC(=O)*; OBn = c1ccc(CO*)cc1; ξP = O=C(O)C1CCCN1

System: CEM cells HIV-1 protection, formazan growth assay
Assay: NCI AIDS Antiviral Assay
Details: for IC50: measured here: growth of uninfected CEM cells
How it was run: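 Screen of anti-HIV-1 activity in human CEM cells using a formazan-based growth measurement at five drug concentrations. Hits with 50% or greater protection were repeated, and confirmation required reproducible complete protection.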

| Structure (SMILES) | EC50 [µM] | IC50 [µM] | outcome |
| --- | --- | --- | --- |
| Clc1cc2ncn(C3CCCCO3)c2cc1Cl (stereo not drawn) | > 200 | 45.7 | – |
| Cc1cc2c(cc1C)C(=O)/C(=C/c1ccccc1C(=O)O)C2 | > 145 | 45.7 | – |
| NC(CSSCC(N)=NCCCCCSC12CC3CC(CC(C3)C1)C2)=NCCCCCSC12CC3CC(CC(C3)C1)C2 | > 200 | 6.17 | – |
| CC1CC[C@]2(C(=O)O)CCC3(C)C(=CC(=O)C4[C@@]5(C)CCC(=O)C(C)(C)C5CC[C@]43C)[C@@H]2[C@H]1C (stereo partly drawn) | – | – | inactive |
| CC1=C(C(=O)NCc2ccccc2)C(c2ccc(Cl)c(Cl)c2)C(C(=O)NCc2ccccc2)=C(C)N1 | – | – | inactive |
| CCC1CCC2CCCC(C)N12 (stereo not drawn) | > 1480 | > 1480 | – |
| O=C1C(Cl)C(c2ccc(O)cc2)N1n1cnc2ccccc2c1=O (stereo not drawn) | > 15.1 | > 15.1 | – |
| OCC(O)C1[O][Sb][O]C1C(O)CO (stereo not drawn) | > 200 | > 200 | – |
| CC(=O)OC[C@H]1OC(=O)C2O[C@H](c3ccccc3)OC21 (stereo partly drawn) | > 200 | > 200 | – |
| C1OC1CN1CCN(CC2CO2)CC1 (stereo not drawn) | – | – | inactive |
| O=c1cc(CNC2CCCC2)[nH]c(=O)[nH]1 | – | – | inactive |
| O=c1[nH]c2cc([N+](=O)[O-])ccc2nc1/C(=N\Nc1ccccc1)C(O)c1ccc2c(c1)OCO2 (stereo not drawn) | > 447 | 214 | – |
| NCCN.NCCN.O=C[O-].O=C[O-].[Co+3].[O-][Cl+3]([O-])([O-])[O-] | – | – | inactive |
| COC1=C(Br)[C@H](O)[C@@]2(C=C1Br)CC(C(=O)NCCCOc1c(Br)cc(C(O)CNC(C)=O)cc1Br)=NO2 (stereo partly drawn) | > 10 | 6.61 | – |
| C(=Nc1ccc(/C=C\c2ccnc3ccccc23)cc1)Nc1ccc(/C=C\c2ccnc3ccccc23)cc1 | > 7.59 | 5.62 | – |
| O=c1c2ccccc2[nH]c2c(Cl)cc(Cl)c(N3CCCCC3)c12 | > 200 | 12.9 | – |
| CCOC(=O)C1=C(Nc2cccc3ccccc23)OCC1=O | – | – | inactive |
| CCCCCCCCCCCCCCCC(=O)OC1C(O)C(O)C(O)C(O)C12CO2 (stereo not drawn) | > 20 | 7.08 | – |
| CN/N=C(/Cc1occc(=O)c1O)C(=O)Nc1ccc(C)c(C)c1 | > 288 | > 288 | – |
| COc1ccccc1/C=C\C#N | > 85.1 | > 85.1 | – |
| Nc1nc(N)nc(NCCSSCCNc2nc(N)nc(N)n2)n1 | > 200 | 97.7 | – |
| COc1ccc(NC(=O)C2C(=O)N(c3ccc(OC)cc3)C(=O)/C2=N\N)cc1 (stereo not drawn) | > 1.45 | > 1.45 | – |
| COc1ccc(S(=O)(=O)N[C@H](C(=O)O)c2ccccc2)cc1 | – | – | inactive |

| Structure (SMILES) | EC50 [µM] | IC50 [µM] | outcome |
| --- | --- | --- | --- |
| NC(Cc1ccc(O)cn1)C(=O)NC(C(=O)O)c1ccccc1 (stereo not drawn) | > 200 | > 200 | – |
| N#C/C(=C\N1CCNC1=S)C(=O)c1ccc2ccccc2c1 | > 200 | 151 | – |
| CN1C/C(=C\C=C\c2ccccc2)C(=O)/C(=C/C=C/c2ccccc2)C1 | > 7.24 | > 7.24 | – |
| O=C1c2ccccc2Sc2ccccc2N1CCCCCCN1CCN(c2ccc(F)cc2)CC1 | > 200 | 10.5 | – |
| Cc1ccccc1NC(=O)CC(=O)NNCC(=O)Nc1nnc(-c2ccccc2)s1 | > 61.7 | 46.8 | – |
| CC[n+]1c(/C=C/c2ccc(N(CCCl)CCCl)cc2)ccc2cc(NC(=O)/C=C/c3ccccc3)ccc21 | – | – | inactive |
| COc1ccc2c(c1)CCN=C2Cc1cc(OC)c(OC)cc1CCCl | > 200 | 53.7 | – |
| NCCCN1CCN(CCCN)CC1 (tested in a mixture with another compound) | > 200 | > 200 | – |
| c1ccc2c3c([nH]c2c1)C1(CCCCC1)c1c([nH]c2ccccc12)C31CCCCC1 | > 6.92 | > 6.92 | – |
| CC(=O)C(=Cc1cccc(F)c1)C(C)=O | > 126 | 64.6 | – |
| CCOC(=O)C1=C(C)N(NC(=O)Nc2ccccc2)C2(N)N(NC(=O)Nc3ccccc3)C(C)=C(C(=O)OCC)C12C#N (stereo not drawn) | > 31.6 | > 31.6 | – |
| CN(C)CCCNC(=O)CCNC(=O)c1cc(NC(=O)c2cc(NC(=O)c3cc(NC(=O)c4nccn4C)cn3C)cn2C)cn1C | > 200 | 17 | – |
| COc1ccc(Cc2nnc3nc(OC)c(-c4ccc(OC)cc4)n3n2)cc1 | > 50.1 | > 50.1 | – |
| Cc1cc2c(=O)c3ccccc3[nH]c2c(C(N)=O)c1C | – | – | inactive |
| CC(/C=C/c1ccccc1)=N\NC(=S)N/N=C(C)/C=C/c1ccccc1 | > 200 | 4.07 | – |
| CC(C)(C)OC(=O)N[C@@H](Cc1ccccc1)C(=O)N1CCCC1C(=O)OCc1ccccc1 (stereo partly drawn) (Boc-Phe-[ξP]-OBn) | > 41.7 | > 41.7 | – |
| CN(C)CCNc1cccc2oc3ccc(O)cc3c(=O)c12 | > 437 | 5.75 | – |
| Cc1ccc(C(CO)(CO)OC(CO)(CO)c2ccc(C)c(C)c2)cc1C | > 200 | > 200 | – |
| NC(CCSSCCC(N)P(=O)(O)O)P(=O)(O)O (stereo not drawn) | > 200 | > 200 | – |
| CCOC(=O)c1cc(-c2ccc(OC)cc2)c([N+](=O)[O-])n1C | > 200 | 32.4 | – |
| COc1ccc(C2OC(c3ccncc3)=NN2C)cc1OC (stereo not drawn) | > 200 | 87.1 | – |
| COc1cc2c3c(c1)nnn3C(=O)CS2 | > 200 | > 200 | – |
| COc1ccc(CCN2COc3ccc4ccc(=O)oc4c3C2)cc1OC | > 200 | 67.6 | – |

| Structure (SMILES) | EC50 [µM] | IC50 [µM] | outcome |
| --- | --- | --- | --- |
| O=[N+]([O-])c1cc(Cl)ccc1S(=O)(=O)c1ccc(Cl)cc1[N+](=O)[O-] | – | – | inactive |
| CN1C/C(=C\c2ccc(Cl)cc2)C(=O)/C(=C/c2ccc(Cl)cc2)C1 | > 200 | 0.417 | – |
| CCCCCCCCCCCCCCCC[N+](C)(C)Cc1ccccc1 | > 200 | 3.31 | – |
| O=[N+]([O-])c1ccc(N=Nc2ccc(N=C=S)cc2)cc1 | > 200 | 110 | – |
| COC(=O)c1c([N+](=O)[O-])ncn1[C@H]1OC[C@@H](OC(C)=O)[C@@H](OC(C)=O)[C@@H]1OC(C)=O | > 200 | > 200 | – |
| CSC1=Nc2ccccc2N=C(N2CCCC2)C1 | 4.47 | > 200 | – |
| CC(=O)Nc1ccc(C2SCc3nc4ccccc4n32)cc1 (stereo not drawn) | > 200 | > 200 | – |
| Cc1c2cc[nH]c(=O)c2cc2c(=O)c3cnccc3[nH]c12 | > 1.95 | > 1.95 | – |
| CC(=O)OCCOCn1c2c(c(=O)[nH]c1=O)CCC2 | > 200 | > 200 | – |
| CCC[CH2][Sn]([CH2]CCC)([O]C(=O)c1cccnc1SC)[O]C(=O)c1cccnc1SC | > 12.6 | 9.12 | – |
| CC1(C)OCC(C2OC(OC(=O)c3ccc(C(F)(F)F)cc3)C3OC(C)(C)OC23)O1 (stereo not drawn) | – | – | inactive |
| CCOC(=O)CCC(NC(=O)c1ccc(NCc2ccc3nc(-c4ccccc4)c(Cl)nc3c2)cc1)C(=O)OCC (stereo not drawn) | > 4.79 | > 4.79 | – |
| OC1OC(c2ccco2)C(F)(F)C(F)(F)C1(F)F (stereo not drawn) | > 200 | 102 | – |
| COc1cc(-c2cc(-c3ccccc3)nc(-c3c(OC)ccc4c(C)cc(=O)oc34)c2)cc(OC)c1OC | > 200 | > 200 | – |
| O=C(Sc1c(-c2ccccc2)c(=O)n(-c2ccccc2)c(=S)n1-c1ccccc1)c1ccc(Cl)cc1 | > 200 | 19.5 | – |
| Cc1cc2c(cc1Cl)SC(NNC(=O)c1ccco1)=NS2(=O)=O | > 200 | > 200 | – |
| Nc1ncnc2c1ncn2CC1COC(CO)O1 (stereo not drawn) | > 1000 | > 1000 | – |
| O=C(O)CN(CCN(CC(=O)O)CC(=O)O)CC(=O)O.[Ni+2] | > 200 | > 200 | – |
| CC[C@H]1[C@@H](C)C=C[C@@H](C)N1S(=O)(=O)c1ccc(C)cc1 | > 17.8 | > 17.8 | – |
| OC1CC2C=CCC(C1)C2 (stereo not drawn) | – | – | inactive |
| O=c1c(SCc2ccc(Cl)cc2)c(N2CCCCC2)cnn1-c1ccccc1 | > 24 | > 24 | – |
| c1c2c(cc3c1OCO3)C(c1onc3cc4c(cc13)OCO4)=NCC2 | – | – | inactive |
| COc1c2c(c(N)c3ccc(=O)oc13)CCO2 | > 126 | > 126 | – |

| Structure (SMILES) | EC50 [µM] | IC50 [µM] | outcome |
| --- | --- | --- | --- |
| COC(=O)c1ccc(NCc2cc(OC)ccc2OC)cc1 | > 200 | 24 | – |
| CCOC(=O)Cc1csc(NC(NC(=O)OCC)(C(=O)OCC)C(F)(F)F)n1 (stereo not drawn) | > 200 | > 200 | – |
| CC1CC(=O)NC2CC1C2(C)C (stereo not drawn) | > 1480 | > 1480 | – |
| CCC1OC(=O)[C@H](C)C(OC2CC(C)(OC)C(O)C(C)O2)C(C)C(OC2OC(C)CC(N(C)C)C2O)[C@](C)(O)CC(C)CN(C)[C@H](C)[C@@H](O)[C@]1(C)O (stereo partly drawn) | > 200 | 132 | – |
| COc1ccc(C2CC(c3ccc4ccccc4c3O)=NN2C(C)=O)cc1OC (stereo not drawn) | > 50.1 | > 50.1 | – |
| CCc1ccccc1C1(Br)C(=O)c2ccccc2C1=O | > 200 | 45.7 | – |
| CC(=O)Oc1ccccc1C(=O)/C=C/c1ccccc1 | > 132 | 12 | – |
| C[C@]12CCC(=O)O[C@H]1CCCCO2 | > 200 | > 200 | – |
| Cc1nc(C(N)=S)sc1C(=O)/C=C/c1c(O)ccc2ccccc12 | > 53.7 | 42.7 | – |
| c1cc2c(ncc3cscc32)s1 | – | – | inactive |
| CCCCc1c2c(nc3c1CC/C(=C\c1ccccc1)C3=O)CCCC2 | > 4.17 | 3.31 | – |
| N#CC(C(=O)/C(=N/NC(=O)c1ccccc1O)C(C#N)c1ccccc1)c1ccccc1 (stereo not drawn) | > 589 | 10.7 | – |
| CSc1ncc2c(C#N)c3n(C)c4ccccc4n3c(=O)c2n1 | > 100 | > 100 | – |
| Cc1nccc2c(C(=O)O)c(C(=O)O)[nH]c12 | > 170 | > 170 | – |
| O=c1c(S(=O)(=O)Oc2ccccc2)coc2cc(F)ccc12 | > 200 | 135 | – |
| NC(=O)NC(=O)c1ccco1 | > 200 | > 200 | – |
| Cc1c(C(=O)CSc2nc3ccc([N+](=O)[O-])cc3[nH]2)c(=O)n(-c2ccccc2)n1C | > 17 | > 17 | – |
| CCN(CC)c1cc2oc(=O)cc(C)c2cc1NC(=O)c1ccccc1 | > 45.7 | 2.51 | – |
| COC(=CN=Nc1nc(C#N)c(C#N)[nH]1)OC | > 214 | 162 | – |
| CN(C)CC1CCC/C1=N/OC(=O)c1ccccc1 (stereo not drawn) | – | – | inactive |
